Columns and labels:
[1] = system: Human marrow progenitor CD34+ cells; experiment: CD34+ Progenitor Cell Proliferation Assay Experiment 2; format: cell-based
Description: Human marrow progenitor CD34+ cells were washed in SFEM, counted and brought to 2×10^5/mL in 24-well plates and incubated for 7 days in the presence of compound or rhTpo. Dilutions of 3′-{N′-[1-(3,4-Dimethylphenyl)-3-methyl-5-oxo-1,5-dihydropyrazol-4-ylidene]hydrazino}-2′-hydroxybiphenyl-3-carboxylic acid bis-(monoethanolamine) were made in distilled water to equal 0, 0.3, 1 and 3 uM final concentration. Dilutions of 3-{N′-[1-(3,4-dimethylphenyl)-3-methyl-5-oxo-1,5-dihydropyrazol-4-ylidene]hydrazino}-2-hydroxy-3′-tetrazol-5-ylbiphenyl disodium salt were made in DMSO to equal 0, 0.3, 1 and 3 uM final concentration in 0.1% DMSO. Recombinant human TPO at a final concentration of 100 ng/mL was used as a positive control. At day 7, cells were counted and flow cytometry was performed using FITC-CD34.

[2] = system: early CD34+ progenitor cells from human bone marrow; experiment: CD34+ Progenitor Cell Proliferation Assay; format: cell-based
Description: Compounds are tested for their ability in stimulating the survival and proliferation of early CD34+ progenitor cells from human bone marrow. In this assay, purified human CD34+ progenitor cells are incubated in liquid culture with test compounds for up to 7 days and the number of cells expressing the early stem cell marker CD34 are then measured by flow cytometry and compared to untreated cells (see Liu et al. Bone Marrow Transplantation. 24:247-52, 1999).

CC1=NN(c2ccc(C)c(C)c2)C(=O)C1=NNc1cccc(-c2cccc(-c3nnn[nH]3)c2)c1O.[Na].[Na] [3-{N′-[1-(3,4-dimethylphenyl)-3-methyl-5-oxo-1,5-dihydropyrazol-4-ylidene]hydrazino}-2-hydroxy-3′-tetrazol-5-ylbiphenyl disodium salt]
increase in the number of CD34+ cells ([1]; compound at 3 uM in 0.1% DMSO, 7 days, FITC-CD34 flow cytometry): 3.6 fold

CC1=NN(c2ccc(C)c(C)c2)C(=O)C1=NNc1cccc(-c2cccc(C(=O)O)c2)c1O.NCCO.NCCO [3′-{N′-[1-(3,4-Dimethylphenyl)-3-methyl-5-oxo-1,5-dihydropyrazol-4-ylidene]hydrazino}-2′-hydroxybiphenyl-3-carboxylic acid bis-(monoethanolamine)]
increase in the number of CD34+ cells ([1]; compound at 3 uM, dilutions in distilled water, 7 days, FITC-CD34 flow cytometry): 3 fold

CC1=NN(c2ccc(C(F)(F)F)cc2)C(=O)C1=NNc1cccc(-c2cccc(C(=O)O)c2)c1O [3′-{N′-[3-methyl-5-oxo-1-(4-trifluoromethylphenyl)-1,5-dihydropyrazol-4-ylidene]hydrazino}-2′-hydroxybiphenyl-3-carboxylic acid]
increase in the number of CD34+ cells in liquid culture over vehicle controls ([2]; compound at 3 uM, days 2, 5 and 7, flow cytometry): up to 2 fold

rhTpo: Recombinant human TPO, used as a positive control at 100 ng/mL
increase in the number of CD34+ cells ([2]; rhTpo 100 ng/ml, same experiment as E1): 2 fold
increase in the number of CD34+ cells ([1]; rhTpo 100 ng/ml positive control, experiment with the bis-(monoethanolamine) salt, day 7): 15 fold
increase in the number of CD34+ cells ([1]; rhTpo 100 ng/ml positive control, experiment with the tetrazole disodium salt, day 7): 3.4 fold
